For one experiment, the target named is Full-length human MNK2 (Homo sapiens, UniProt Q9HBH9, T379D). Put plainly: MNK2 biochemical IC50 assay (Caliper mobility shift).
In experiment [1] the test system is phosphorylation of eIF4E at ser209 in MV4.11 cell line. Put plainly: cells. The class given is cell-based. To be noted: Homo sapiens; MV4.11 cells, 1.5 hr compound incubation, average of at least 2 independent experiments; read-out: plc50 elF4E (converted). As to the method: MNK activity in cells was measured by monitoring the phosphorylation of eIF4E at ser209, the known endogenous substrate of MNK1/2, in cell lysates. […] The assay detection is based on the formation of sandwich antibody complexes coupled to donor and acceptor beads. Excitation at 680 nm causes the transfer of a singlet oxygen species between donor and acceptor beads when they are in close proximity by binding to the analyte […], which results in the emission of light at 520-620 nm.
Cells were then lysed and the Aphascreen Surefire protocol followed according to manufacturer's recommendations. 8 ul Acceptor beads (1:50 dilution in kit activation buffer) was added to lysate, shaken 150 rpm for 2 min and incubated for 1.5 hr at room temperature. 3 ul Donor beads (1:20 dilution in kit dilution buffer) were then added, shaken 150 rpm for 2 min and incubated for a further 1.5 hr at room temperature after which the plates were read on Pherastar FS using Alphascreen optic module.
Data were normalised relative to untreated DMSO only controls and curves repeated in duplicate within experiments. Data reported are averages of at least 2 independent experiments.

In a further experiment the target is Full-length human MNK1 (Homo sapiens, UniProt Q9BUB5, T385D). In words: MNK1 biochemical IC50 assay (Caliper mobility shift).
Sequence of Full-length human MNK1 (Q9BUB5 1-424 isoform Q9BUB5-2 T344D): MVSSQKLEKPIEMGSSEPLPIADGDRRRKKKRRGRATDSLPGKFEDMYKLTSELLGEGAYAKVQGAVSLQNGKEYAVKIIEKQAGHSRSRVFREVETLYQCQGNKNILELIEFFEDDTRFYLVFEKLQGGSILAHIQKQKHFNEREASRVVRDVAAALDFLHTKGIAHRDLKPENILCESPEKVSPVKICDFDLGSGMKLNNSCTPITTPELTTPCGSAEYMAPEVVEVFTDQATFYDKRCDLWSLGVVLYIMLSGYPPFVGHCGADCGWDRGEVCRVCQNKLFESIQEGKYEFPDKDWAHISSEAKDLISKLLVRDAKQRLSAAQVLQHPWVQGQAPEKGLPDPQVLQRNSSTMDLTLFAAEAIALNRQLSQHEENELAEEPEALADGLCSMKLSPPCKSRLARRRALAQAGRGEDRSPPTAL

Sequence of Full-length human MNK2 (Q9HBH9 whole entry T379D): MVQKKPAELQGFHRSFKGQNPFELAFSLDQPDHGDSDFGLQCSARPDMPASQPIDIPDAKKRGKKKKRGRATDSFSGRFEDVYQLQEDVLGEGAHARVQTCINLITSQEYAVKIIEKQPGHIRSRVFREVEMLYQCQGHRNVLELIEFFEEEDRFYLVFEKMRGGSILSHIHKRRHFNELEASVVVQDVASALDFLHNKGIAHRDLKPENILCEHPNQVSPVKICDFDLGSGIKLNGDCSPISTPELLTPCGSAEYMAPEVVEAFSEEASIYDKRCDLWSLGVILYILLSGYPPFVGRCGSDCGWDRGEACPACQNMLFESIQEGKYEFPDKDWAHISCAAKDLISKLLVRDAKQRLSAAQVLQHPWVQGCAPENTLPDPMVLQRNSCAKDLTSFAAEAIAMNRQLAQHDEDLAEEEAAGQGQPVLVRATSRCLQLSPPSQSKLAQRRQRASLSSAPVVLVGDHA

As for `CC(CF)Oc1cc(F)ccc1Nc1ncnc2ccn(C)c12` (racemic) [Example 26, Racemic-N-[4-fluoro-2-(2-fluoro-1-methyl-ethoxy)phenyl]-5-methyl-pyrrolo[3,2-d]pyrimidin-4-amine], the IC50 on Full-length human MNK2 is 31.6 nM; in experiment [1] it was 15.8 nM; on Full-length human MNK1, 79.4 nM.

`CCn1ccc2ncnc(Nc3ccc(F)cc3OC(C)C)c21` [Example 1, 5-Ethyl-N-(4-fluoro-2-isopropoxy-phenyl)pyrrolo[3,2-d]pyrimidin-4-amine]: the IC50 at Full-length human MNK2 was 126 nM; in experiment [1], 50.1 nM; on Full-length human MNK1 it was 200 nM.

`CCCn1ccc2ncnc(Nc3ccc(F)cc3OC(C)C)c21` [Example 2, N-(4-fluoro-2-isopropoxy-phenyl)-5-propyl-pyrrolo[3,2-d]pyrimidin-4-amine]: the results for the IC50 (on Full-length human MNK2; in experiment [1]; at Full-length human MNK1) were 398 nM, 158 nM and 501 nM, respectively.

For `CC(C)Oc1cc(F)ccc1Nc1ncnc2ccn(C(C)C)c12` [Example 3, N-(4-fluoro-2-isopropoxy-phenyl)-5-isopropyl-pyrrolo[3,2-d]pyrimidin-4-amine], the IC50 was 501 nM on Full-length human MNK2, 158 nM in experiment [1] and 1000 nM at Full-length human MNK1.

Regarding `CC(C)Oc1cc(F)ccc1Nc1ncnc2ccn(CCO)c12` [Example 4, 2-[4-(4-Fluoro-2-isopropoxy-anilino)pyrrolo[3,2-d]pyrimidin-5-yl]ethanol], the IC50 was 1260 nM on Full-length human MNK2, 251 nM in experiment [1] and 2000 nM on Full-length human MNK1.

`COCCn1ccc2ncnc(Nc3ccc(F)cc3OC(C)C)c21` [Example 5, N-(4-fluoro-2-isopropoxy-phenyl)-5-(2-methoxyethyl)pyrrolo[3,2-d]pyrimidin-4-amine]: the IC50 on Full-length human MNK2 is 2000 nM; in experiment [1] it was 1000 nM; at Full-length human MNK1, 3160 nM.

As for `CC(C)Oc1nc(Cl)ccc1Nc1ncnc2ccn(C)c12` [Example 6, N-(6-chloro-2-isopropoxy-3-pyridyl)-5-methyl-pyrrolo[3,2-d]pyrimidin-4-amine], the values for the IC50 (on Full-length human MNK2; in experiment [1]; at Full-length human MNK1) were 63.1 nM, 63.1 nM and 251 nM, respectively.

Regarding `Cn1ccc2ncnc(Nc3ccc(F)cc3OC(CF)CF)c21` [Example 11, N-[4-fluoro-2-[2-fluoro-1-(fluoromethyl)ethoxy]phenyl]-5-methyl-pyrrolo[3,2-d]pyrimidin-4-amine], the figures for the IC50 at Full-length human MNK2 and on Full-length human MNK1 were 50.1 nM and 158 nM, respectively.

With `Cn1ccc2ncnc(Nc3ccc(F)cc3O[C@@H]3CCCOC3)c21` [Example 18, N-[4-fluoro-2-[(3R)-tetrahydropyran-3-yl]oxy-phenyl]-5-methyl-pyrrolo[3,2-d]pyrimidin-4-amine], the IC50 on Full-length human MNK2 was 31.6 nM; at Full-length human MNK1 it was 63.1 nM.

As to `Cn1ccc2ncnc(Nc3ccc(F)cc3O[C@H]3CCCOC3)c21` [Example 19, N-[4-fluoro-2-[(3S)-tetrahydropyran-3-yl]oxy-phenyl]-5-methyl-pyrrolo[3,2-d]pyrimidin-4-amine], the IC50 on Full-length human MNK2 is 126 nM; at Full-length human MNK1 it was 501 nM.

Regarding `Cn1ccc2ncnc(Nc3ccc(F)cc3OC3CCCC3)c21` [Example 25, N-[2-(cyclopentyloxy)-4-fluorophenyl]-5-methyl-5H-pyrrolo[3,2-d]pyrimidin-4-amine], the IC50 at Full-length human MNK2 is 31.6 nM; at Full-length human MNK1, 126 nM.

Consider `CC(C)Oc1cc(F)ccc1Nc1ncnc2cc(C(=O)NCC3CCNCC3)n(C)c12` [Example 41, 4-{[4-Fluoro-2-(propan-2-yloxy)phonyl]amino}-5-methyl-N-(piperidin-4-ylmethyl)-5H-pyrrolo[3,2-d]pyrimidine-6-carboxamide], for which the IC50 on Full-length human MNK2 and on Full-length human MNK1 was 39.8 nM throughout.

As to `Fc1ccc2c(c1)CCN2c1ncnc2cc[nH]c12` [Example 46, 4-(5-Fluoroindolin-1-yl)-5H-pyrrolo[3,2-d]pyrimidine], the IC50 is 31.6 nM at Full-length human MNK2 and 39.8 nM on Full-length human MNK1.
